Results taken from US7445897B2, “Sequence variants of multi-drug resistance genes, MDR1 and MRP1, and methods for assessment of drug penetration and disposition” (University of Washington, priority 2004, dated 2008).
Like-named read-outs stand apart in the source and are kept apart here.

Tests used:
LLC-PK1 control cells [1] = test: Intracellular uptake of HIV protease inhibitors; assay type: in vitro ADME, porcine
LLC-PK1 control cells [2] = tested on: LLC-PK1 control cells
[3] = tested on: P-gp (MDR11199, G1199A) in recombinant LLC-PK1 cells; conditions: human, LLC-PK1
[4] = molecular target: MDR1-wt in recombinant LLC-PK1 cells (Homo sapiens, UniProt P08183, G185V/S893A)
[5] = molecular target: MDR1-1199A in recombinant LLC-PK1 cells (Homo sapiens, UniProt P08183, G185V/S400N/S893A)
MDR1 (wild type) = MDR1 (wild type) (Homo sapiens, UniProt P08183, G185V/S893A); test: in vitro
MDR1 (1199A variant) = MDR1 (1199A variant) (Homo sapiens, UniProt P08183, G185V/S400N/S893A); test: Intracellular uptake of HIV protease inhibitors; conditions: recombinant LLC-PK1 cells expressing MDR1-1199A
[6] = tested on: HEK negative control cells; test: Cytotoxic drug sensitivity assay (MTS); assay type: cell-based, human; conditions: HEK Control; 72hours, MTS; read-out: EC50 (Mean ± S.D.)
HEK - MDR1 WT cells = test: Cytotoxic drug sensitivity assay (MTS); assay type: cell-based, human; conditions: HEK MDR1 WT; 72hours, MTS; read-out: EC50 (Mean ± S.D.)
HEK - MDR1 G1199T cells = test: Cytotoxic drug sensitivity assay (MTS); assay type: cell-based, human; conditions: HEK MDR1 G1199T; 72hours, MTS; read-out: EC50 (Mean ± S.D.)
[7] = protease inhibitor + GF120918 (1 μM)

Sequence of MDR1-wt in recombinant LLC-PK1 cells (P08183 whole entry G185V/S893A): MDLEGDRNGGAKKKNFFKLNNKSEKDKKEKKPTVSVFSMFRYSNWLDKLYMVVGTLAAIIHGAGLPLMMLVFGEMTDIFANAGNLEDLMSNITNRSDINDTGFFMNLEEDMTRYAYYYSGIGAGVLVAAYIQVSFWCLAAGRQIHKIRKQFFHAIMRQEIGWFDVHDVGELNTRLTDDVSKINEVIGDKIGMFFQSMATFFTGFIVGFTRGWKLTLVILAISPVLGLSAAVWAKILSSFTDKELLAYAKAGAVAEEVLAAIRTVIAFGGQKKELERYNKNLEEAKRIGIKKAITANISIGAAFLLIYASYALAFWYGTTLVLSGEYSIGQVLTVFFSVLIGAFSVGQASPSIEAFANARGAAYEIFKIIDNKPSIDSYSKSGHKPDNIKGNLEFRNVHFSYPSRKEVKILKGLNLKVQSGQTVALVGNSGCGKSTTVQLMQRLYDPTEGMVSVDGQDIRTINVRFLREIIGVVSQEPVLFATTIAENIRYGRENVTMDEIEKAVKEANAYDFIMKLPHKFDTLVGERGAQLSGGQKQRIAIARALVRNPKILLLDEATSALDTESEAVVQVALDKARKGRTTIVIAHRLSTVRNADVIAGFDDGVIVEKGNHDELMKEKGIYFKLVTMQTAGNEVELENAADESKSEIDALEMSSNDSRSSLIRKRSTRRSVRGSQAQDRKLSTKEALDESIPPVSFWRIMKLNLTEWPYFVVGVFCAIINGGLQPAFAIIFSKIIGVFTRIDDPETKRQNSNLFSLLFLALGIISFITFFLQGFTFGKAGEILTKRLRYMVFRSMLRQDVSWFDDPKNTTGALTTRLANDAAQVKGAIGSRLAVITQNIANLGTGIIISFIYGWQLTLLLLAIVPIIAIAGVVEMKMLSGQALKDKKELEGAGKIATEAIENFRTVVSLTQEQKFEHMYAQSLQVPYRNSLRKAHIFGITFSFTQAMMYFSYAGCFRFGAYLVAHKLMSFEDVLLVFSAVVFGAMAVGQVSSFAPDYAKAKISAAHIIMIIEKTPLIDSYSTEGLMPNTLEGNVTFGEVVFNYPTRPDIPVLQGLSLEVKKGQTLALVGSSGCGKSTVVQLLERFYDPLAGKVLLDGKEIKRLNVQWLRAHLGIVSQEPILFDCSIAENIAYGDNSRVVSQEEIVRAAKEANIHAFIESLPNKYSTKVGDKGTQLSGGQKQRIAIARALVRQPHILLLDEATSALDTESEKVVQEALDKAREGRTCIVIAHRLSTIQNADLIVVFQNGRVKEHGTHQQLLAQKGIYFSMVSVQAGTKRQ
Sequence of MDR1 (wild type) (P08183 whole entry G185V/S893A): as above
Sequence of MDR1 (1199A variant) (P08183 whole entry G185V/S400N/S893A): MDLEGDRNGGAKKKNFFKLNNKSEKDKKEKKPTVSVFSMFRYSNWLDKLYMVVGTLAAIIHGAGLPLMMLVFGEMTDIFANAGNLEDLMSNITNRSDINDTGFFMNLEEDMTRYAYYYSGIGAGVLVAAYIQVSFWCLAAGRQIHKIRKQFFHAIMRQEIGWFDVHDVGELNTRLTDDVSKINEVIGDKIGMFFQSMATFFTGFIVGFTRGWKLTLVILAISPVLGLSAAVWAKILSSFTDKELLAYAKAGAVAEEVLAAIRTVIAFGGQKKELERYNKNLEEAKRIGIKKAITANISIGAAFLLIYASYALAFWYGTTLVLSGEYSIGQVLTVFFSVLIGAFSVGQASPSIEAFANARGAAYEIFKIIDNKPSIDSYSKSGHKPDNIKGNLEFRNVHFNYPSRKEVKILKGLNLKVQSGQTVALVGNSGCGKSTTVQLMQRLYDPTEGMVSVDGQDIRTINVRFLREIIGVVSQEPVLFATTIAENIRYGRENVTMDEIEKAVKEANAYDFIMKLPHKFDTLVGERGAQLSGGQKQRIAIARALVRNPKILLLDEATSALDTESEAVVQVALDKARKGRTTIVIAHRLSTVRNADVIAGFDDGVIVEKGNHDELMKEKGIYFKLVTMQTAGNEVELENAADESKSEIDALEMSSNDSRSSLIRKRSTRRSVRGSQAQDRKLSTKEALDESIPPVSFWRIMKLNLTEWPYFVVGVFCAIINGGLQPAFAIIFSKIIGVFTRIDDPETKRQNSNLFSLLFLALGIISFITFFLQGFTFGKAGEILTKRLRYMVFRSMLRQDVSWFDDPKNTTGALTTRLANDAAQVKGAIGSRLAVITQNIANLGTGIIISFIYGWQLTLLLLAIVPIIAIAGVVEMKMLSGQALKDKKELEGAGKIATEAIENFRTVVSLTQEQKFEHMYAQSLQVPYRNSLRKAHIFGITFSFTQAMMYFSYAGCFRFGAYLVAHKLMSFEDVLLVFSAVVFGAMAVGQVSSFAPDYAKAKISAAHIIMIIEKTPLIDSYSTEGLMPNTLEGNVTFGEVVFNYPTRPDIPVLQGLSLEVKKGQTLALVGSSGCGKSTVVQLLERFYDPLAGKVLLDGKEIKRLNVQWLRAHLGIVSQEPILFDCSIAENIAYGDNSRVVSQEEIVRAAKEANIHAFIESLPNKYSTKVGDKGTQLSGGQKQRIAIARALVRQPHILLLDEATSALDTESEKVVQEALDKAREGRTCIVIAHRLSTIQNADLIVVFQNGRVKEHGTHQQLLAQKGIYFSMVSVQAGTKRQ
Sequence of MDR1-1199A in recombinant LLC-PK1 cells (P08183 whole entry G185V/S400N/S893A): as above

CC(C)(C)NC(=O)[C@@H]1C[C@@H]2CCCC[C@@H]2CN1C[C@@H](O)[C@H](Cc1ccccc1)NC(=O)[C@H](CC(N)=O)NC(=O)c1ccc2ccccc2n1 [saquinavir]
Km (LLC-PK1 control cells [1]): 2 µM
Vmax (LLC-PK1 control cells [1]): 1.47 pmole/min*10^6 cells
Rate of transfer dQ/dt ± s.d., A → B (LLC-PK1 control cells [2]; [7]): 3.48 ± 0.57
Rate of transfer dQ/dt ± s.d., B → A (LLC-PK1 control cells [2]; [7]): 7.36 ± 0.60
Rate of transfer dQ/dt ± s.d., A → B (LLC-PK1 control cells [2]; protease inhibitor alone, 5 μM): 3.02 ± 0.35
Rate of transfer dQ/dt ± s.d., B → A (LLC-PK1 control cells [2]; protease inhibitor alone, 5 μM): 8.03 ± 0.51
decrease in apical-to-basolateral flux in MDR11199 cells compared to MDR1wt cells [3]: 2.3 fold
Vmax [4]: 1.13 pmole/min*10^6 cells
Vmax [5]: 1.00 pmole/min*10^6 cells
Km (MDR1 (wild type)): 18 µM
Km (MDR1 (1199A variant)): 14.5 µM

ivermectin
EC50 [6]: 4.1 ± 0.21 µM
EC50 (HEK - MDR1 WT cells): 3.809 ± 0.0273 µM
EC50 (HEK - MDR1 G1199T cells): 3.84 ± 0.307 µM
EC50 (HEK - MDR1 G1199A cells): 4.04 ± 0.0776 µM
